Laboratory results reported in patent US20230145835A1, “Modulators of Alpha-4-beta-7 Integrin and MAdCAM” (48HD Biopharma Inc., priority 2021, published 2023).
Like-named read-outs stand apart in the source and are kept apart here. Numbered stars: 1 amine (or outer) side, 2 acyl side, 3 side chain; on linkers, the order of the positions; unused ones are H or OH. Bridge positions count the residues as written; N and C are the ends. Square brackets hold non-standard residues; d marks the D form. Peptide text beside a SMILES is read from it. * marks the point of attachment. X3 = O=C(/C=N/OCCCCCCOc1cc(C[*:2])cc(C[*:3])c1)[*:1]; X1 = O=C(C=NOCCCCCCOc1cc(C[*:2])cc(C[*:3])c1)[*:1]; X11 = CCCCCOc1cc(C[*:1])cc(C[*:2])c1; aIle = CC[C@@H](C)[C@H](N)C(=O)O; Cba = N[C@@H](CC1CCC1)C(=O)O; Nle = CCCC[C@H](N)C(=O)O; X10 = CO/N=C/C(=O)*

Molecular target: T1, rh-integrin α4β7/LPAM-1 (Homo sapiens, UniProt P13612+P26010)
T1 sequence (P13612 34-977 limits assumed): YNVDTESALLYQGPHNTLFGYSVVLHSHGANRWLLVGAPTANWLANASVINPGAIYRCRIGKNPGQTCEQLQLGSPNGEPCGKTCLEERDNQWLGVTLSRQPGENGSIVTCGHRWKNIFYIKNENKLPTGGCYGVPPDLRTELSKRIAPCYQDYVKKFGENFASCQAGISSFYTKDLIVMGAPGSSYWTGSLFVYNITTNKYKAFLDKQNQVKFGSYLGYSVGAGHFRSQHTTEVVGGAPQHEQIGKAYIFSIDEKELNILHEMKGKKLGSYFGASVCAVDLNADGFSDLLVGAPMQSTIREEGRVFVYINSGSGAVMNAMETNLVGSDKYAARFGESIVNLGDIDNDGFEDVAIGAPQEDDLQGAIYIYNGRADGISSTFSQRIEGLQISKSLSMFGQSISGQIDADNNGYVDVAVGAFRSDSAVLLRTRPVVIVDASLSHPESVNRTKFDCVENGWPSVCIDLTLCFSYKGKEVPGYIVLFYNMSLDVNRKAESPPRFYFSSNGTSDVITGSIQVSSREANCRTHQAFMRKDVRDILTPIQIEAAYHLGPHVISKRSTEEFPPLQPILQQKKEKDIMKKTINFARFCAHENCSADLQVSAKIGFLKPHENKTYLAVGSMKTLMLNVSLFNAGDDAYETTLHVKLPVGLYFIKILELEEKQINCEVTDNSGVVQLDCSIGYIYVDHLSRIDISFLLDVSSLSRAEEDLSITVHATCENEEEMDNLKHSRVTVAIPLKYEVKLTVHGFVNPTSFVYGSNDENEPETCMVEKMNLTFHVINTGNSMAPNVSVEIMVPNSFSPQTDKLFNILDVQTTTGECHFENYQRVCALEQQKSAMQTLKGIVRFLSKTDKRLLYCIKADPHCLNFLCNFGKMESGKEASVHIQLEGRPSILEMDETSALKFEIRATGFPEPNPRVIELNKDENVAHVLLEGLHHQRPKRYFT
T1 sequence (P26010 20-723 limits assumed): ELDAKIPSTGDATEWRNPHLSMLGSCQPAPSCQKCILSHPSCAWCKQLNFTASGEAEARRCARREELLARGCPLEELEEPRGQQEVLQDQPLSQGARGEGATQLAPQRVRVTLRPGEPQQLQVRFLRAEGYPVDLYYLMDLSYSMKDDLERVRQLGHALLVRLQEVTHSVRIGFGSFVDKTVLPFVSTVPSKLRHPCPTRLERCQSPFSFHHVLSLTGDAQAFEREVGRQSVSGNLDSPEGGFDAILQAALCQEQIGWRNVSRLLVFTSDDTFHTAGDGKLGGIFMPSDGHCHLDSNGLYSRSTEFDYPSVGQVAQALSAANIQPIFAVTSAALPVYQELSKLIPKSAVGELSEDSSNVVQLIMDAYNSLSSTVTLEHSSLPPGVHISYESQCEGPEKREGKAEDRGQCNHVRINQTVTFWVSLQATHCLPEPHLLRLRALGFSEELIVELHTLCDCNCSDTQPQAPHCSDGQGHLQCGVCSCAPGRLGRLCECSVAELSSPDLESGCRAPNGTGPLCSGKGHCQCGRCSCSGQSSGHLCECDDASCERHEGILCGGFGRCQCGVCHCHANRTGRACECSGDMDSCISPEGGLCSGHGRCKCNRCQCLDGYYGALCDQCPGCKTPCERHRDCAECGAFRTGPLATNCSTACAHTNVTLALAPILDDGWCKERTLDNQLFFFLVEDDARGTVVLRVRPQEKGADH
Experiment: α4β7-MadCAM Competition ELISA (Example 4)
Type: binding
Conditions: read-out: IC50
Description: After washing with wash buffer, 200 μL assay buffer was added to each well and incubated for one hour at 28° C. After another wash with wash buffer, 100 μL of a MAdCAM and peptide mixture in assay buffer was added to each well and incubated for one hour at 28° C., followed by washing with wash buffer.

[1] = Table 3 Representative compounds, inhibition of MAdCAM binding to coated α4β7
[2] = competition ELISA, 4 μg/mL α4β7 coated, MAdCAM and peptide mixture, 28° C.

Q: Which IC50 [1] does the source give for `CC[C@H](C)[C@@H]1NC(=O)[C@H](C)NC(=O)[C@H](CCSC)NC(=O)[C@@H]2CCCN2C(=O)[C@@H]2CSCc3cc(cc(c3)OCCCCCCO/N=C/C(=O)N[C@@H](CCC(N)=O)C(=O)N2)CSC[C@@H](C(N)=O)NC(=O)[C@H]([C@@H](C)O)NC(=O)[C@@H]2CCCN2C1=O` [compound 110, TSL6- SQCPMAIPTC] (QCPMAIPTC-NH2; linker N-2-9 via X3) here?
A: Its IC50 is > 500 µM.

Q: How did the IC50 [1] turn out when `C[C@@H](O)[C@@H]1NC(=O)[C@H](CC(=O)O)NC(=O)[C@@H]2CCCN2C(=O)[C@H](Cc2ccc(O)cc2)NC(=O)[C@@H]2CSCc3cc(cc(c3)OCCCCCCO/N=C/C(=O)N[C@@H](CC(=O)O)C(=O)N2)CSC[C@@H](C(N)=O)NC(=O)[C@H](Cc2cnc[nH]2)NC(=O)[C@H](Cc2ccccc2)NC1=O` [compound 79, TSL6- SDCYPDTFHC] (DCYPDTFHC-NH2; linker N-2-9 via X3) was run?
A: The IC50 was 53.5 µM.

Q: Which IC50 [2] does the source give for `CSCC[C@@H]1NC(=O)[C@H]([C@@H](C)O)NC(=O)[C@H](C)NC(=O)CNC(=O)[C@@H]2CSCc3cc(cc(c3)OCCCCCCON=CC(=O)N[C@@H](Cc3ccccc3)C(=O)N2)CSC[C@@H](C(=O)O)NC(=O)[C@H](CCCCN)NC(=O)[C@H](CCCCN)NC1=O` [SEQ ID NO: 79] (FCGATMKKC-OH; linker N-2-9 via X1) here?
A: Its IC50 is 162 µM.

Q: For `CC(C)C[C@@H]1NC(=O)[C@H](CO)NC(=O)[C@H](CCCNC(=N)N)NC(=O)[C@@H]2CSCC(=O)N[C@@H](CCCNC(=N)N)C(=O)N[C@@H](CSSC[C@@H](C(=O)N[C@@H](Cc3c[nH]c4ccccc34)C(=O)N[C@@H](CCC(N)=O)C(N)=O)NC(=O)[C@H](C(C)C)NC(=O)[C@@H](CC(=O)O)NC1=O)C(=O)N[C@@H](CO)C(=O)N[C@@H](CC(=O)O)C(=O)N[C@@H]([C@@H](C)O)C(=O)N[C@@H](CC(C)C)C(=O)N2` (racemic) [compound 87], which IC50 [1] is on record?
A: The IC50 was 71.3 µM.

Q: `CC(C)C[C@@H]1NC(=O)[C@@H]2CCCN2C(=O)[C@@H]2CSCc3cc(cc(c3)OCCCCCCO/N=C/C(=O)N[C@@H](CCCCN)C(=O)N2)CSC[C@@H](C(N)=O)NC(=O)[C@H](CCC(=O)O)NC(=O)[C@H](Cc2ccc(O)cc2)NC(=O)[C@@H]2CCCN2C(=O)[C@H](C(C)C)NC(=O)[C@H](CC(=O)O)NC1=O` [compound 10] (KCPLDVPYEC-NH2; linker N-2-10 via X3) was tested. Which IC50 [1] did it give?
A: The IC50 was 0.188 µM.

Q: How did the IC50 [1] turn out when `CCCC[C@@H]1NC(=O)[C@@H]2CCCN2C(=O)[C@@H]2CSCc3cc(cc(c3)OCCCCCCO/N=C/C(=O)N[C@@H](CCCNC(=N)N)C(=O)N2)CSC[C@@H](C(N)=O)NC(=O)[C@H](CCC(=O)O)NC(=O)[C@H](CCC(N)=O)NC(=O)[C@H](Cc2c[nH]c3ccccc23)NC(=O)[C@H](CC2CCC2)NC(=O)[C@H](CC(=O)O)NC1=O` [compound 55, TSL6-SRCP{Nle}D {CbA}WQEC] (RCP[Nle]D[Cba]WQEC-NH2; linker N-2-10 via X3) was run?
A: The IC50 was 3.45 µM.

Q: With `CSCC[C@@H]1NC(=O)[C@@H]2CCCN2C(=O)[C@@H]2CSCc3cc(cc(c3)OCCCCCCO/N=C/C(=O)N[C@@H](C)C(=O)N2)CSC[C@@H](C(N)=O)NC(=O)[C@H](CCC(=O)O)NC(=O)[C@H](CCC(N)=O)NC(=O)[C@H](Cc2c[nH]c3ccccc23)NC(=O)[C@H](C(C)C)NC(=O)[C@H](CC(=O)O)NC1=O` [compound 62, TSL6- SDCHDPPKVC] (ACPMDVWQEC-NH2; linker N-2-10 via X3) as the molecule, how does the IC50 [1] read?
A: Its IC50 is 6.42 µM.

Q: Which IC50 [1] does the source give for `CC[C@H](C)[C@@H]1NC(=O)[C@H](CC(=O)O)NC(=O)[C@H](CCSC)NC(=O)[C@@H]2CCCN2C(=O)[C@@H]2CSCc3cc(cc(c3)OCCCCCCO/N=C/C(=O)N[C@@H](CCC(N)=O)C(=O)N2)CSC[C@@H](C(N)=O)NC(=O)[C@H](C)NC(=O)[C@@H]2CCCN2C1=O` [compound 46, TSL6- SQCPMDIPAC] (QCPMDIPAC-NH2; linker N-2-9 via X3) here?
A: The IC50 was 1.64 µM.

Q: For `CC[C@@H](C)[C@@H]1NC(=O)/C=N/OCCCCCCOc2cc3cc(c2)CSC[C@H](NC1=O)C(=O)N[C@@H](CCCNC(=N)N)C(=O)N[C@@H]([C@@H](C)O)C(=O)N[C@@H](CC(=O)O)C(=O)N[C@@H](C(C)C)C(=O)N1CCC[C@H]1C(=O)N[C@@H]([C@@H](C)CC)C(=O)N[C@@H](CC(=O)O)C(=O)N[C@H](C(N)=O)CSC3` [compound 66, TSL6- SICRTDVPIDC] ([aIle]CRTDVPIDC-NH2; linker N-2-10 via X3), which IC50 [1] is on record?
A: The IC50 was 14.4 µM.

Q: How did the IC50 [1] turn out when `CC(C)C[C@@H]1NC(=O)[C@H](C)NC(=O)[C@@H]2CSCc3cc(cc(c3)OCCCCCCO/N=C/C(=O)N[C@@H](CCCCN)C(=O)N2)CSC[C@@H](C(N)=O)NC(=O)[C@H](CCC(=O)O)NC(=O)[C@H](Cc2ccc(O)cc2)NC(=O)[C@@H]2CCCN2C(=O)[C@H]([C@@H](C)O)NC(=O)[C@H](CC(=O)O)NC1=O` (stereo in doubt) [compound 53, TSL6- SKCALDTPYEC] was run?
A: Its IC50 is 2.7 µM.

Q: `CC(C)C[C@@H]1NC(=O)[C@@H]2CCCN2C(=O)[C@@H]2CSCc3cc(cc(c3)OCCCCCCO/N=C/C(=O)N[C@@H](CCCCN)C(=O)N2)CSC[C@@H](C(N)=O)NC(=O)[C@H](CO)NC(=O)[C@@H]2CCCN2C(=O)[C@H](C)NC(=O)[C@H](CC(=O)O)NC1=O` [compound 50, TSL6- SKCPLDAPSC] (KCPLDAPSC-NH2; linker N-2-9 via X3) was tested. Which IC50 [1] did it give?
A: The IC50 was 1.74 µM.

Q: With `CC(C)C[C@@H]1NC(=O)[C@@H]2CCCN2C(=O)[C@@H]2CSCc3cc(cc(c3)OCCCCCCO/N=C/C(=O)N[C@@H](CCCCN)C(=O)N2)CSC[C@@H](C(N)=O)NC(=O)[C@H](CCC(=O)O)NC(=O)[C@H](Cc2ccc(O)cc2)NC(=O)[C@@H]2CCCN2C(=O)[C@H](CC(C)C)NC(=O)[C@H](CC(=O)O)NC1=O` [compound 19] (KCPLDLPYEC-NH2; linker N-2-10 via X3) as the molecule, how does the IC50 [1] read?
A: Its IC50 is 0.363 µM.

Q: How did the IC50 [1] turn out when `CC(C)C[C@@H]1NC(=O)[C@@H]2CCCN2C(=O)[C@@H]2CSCc3cc(cc(c3)OCCCCCCO/N=C/C(=O)N[C@@H](CCCCN)C(=O)N2)CSC[C@@H](C(N)=O)NC(=O)[C@H](CCC(=O)O)NC(=O)[C@H]([C@@H](C)O)NC(=O)[C@@H]2CCCN2C(=O)[C@H]([C@@H](C)O)NC(=O)[C@H](CC(=O)O)NC1=O` [compound 34, TSL6- SKCPLDTPTEC] (KCPLDTPTEC-NH2; linker N-2-10 via X3) was run?
A: The IC50 was 0.748 µM.

Q: With `CC(C)C[C@@H]1NC(=O)[C@@H]2CCCN2C(=O)[C@@H]2CSCc3cc(cc(c3)OCCCCCCON=CC(=O)N[C@@H](CCCCN)C(=O)N2)CSC[C@@H](C(=O)O)NC(=O)[C@H](CO)NC(=O)[C@@H]2CCCN2C(=O)[C@H](C(C)C)NC(=O)[C@H](C)NC1=O` [SEQ ID NO: 56] (KCPLAVPSC-OH; linker N-2-9 via X1) as the molecule, how does the IC50 [2] read?
A: The IC50 was 55.9 µM.

Q: Which IC50 [1] does the source give for `CCCCCOc1cc2cc(c1)CSC[C@H](NC(=O)[C@H](Cc1ccccc1)NC(=O)/C=N/OC)C(=O)N[C@@H](CC(C)C)C(=O)NCC(=O)N[C@@H](Cc1ccc(O)cc1)C(=O)N[C@@H](CCC(=O)O)C(=O)N[C@@H](C)C(=O)N[C@@H]([C@@H](C)O)C(=O)N[C@H](C(N)=O)CSC2` [compound 97, TSL6- SFCLGYEASC] (X10-FCLGYEATC-NH2; linker 2-9 via X11) here?
A: Its IC50 is 127 µM.

Q: With `CC[C@H](C)[C@@H]1NC(=O)[C@H](CC(=O)O)NC(=O)[C@H](CCSC)NC(=O)[C@@H]2CCCN2C(=O)[C@@H]2CSCc3cc(cc(c3)OCCCCCCO/N=C/C(=O)N[C@@H](CCCNC(=N)N)C(=O)N2)CSC[C@@H](C(N)=O)NC(=O)[C@H]([C@@H](C)O)NC(=O)[C@@H]2CCCN2C1=O` [compound 20] (RCPMDIPTC-NH2; linker N-2-9 via X3) as the molecule, how does the IC50 [1] read?
A: The IC50 was 0.404 µM.
